Measured values from US10758522B2, “Small molecule analogs of the nemo binding peptide” (THE SCRIPPS RESEARCH INSTITUTE, priority 2015, dated 2020).
“Also recorded” adds a separate entry of the source.

Assays:
[1] = test system: K14-Cre; Ercc1−/flox mice; assay: Topical treatment of skin aging in K14-Cre; Ercc1−/flox mice; format: in vivo, mouse; settings: daily
Description: To test the ability of NBDA-1 to function in vivo, the drug was tested in several models of aging. In FIG. 12, the ability of topical treatment of NBDA-1 to reduce signs of skin aging is shown. Areas on the back of normal mice or mice with enhanced skin aging (K14-Cre; Ercc1^−/flox) were shaved and then treated daily with drugs or control creams.

NF-κB [2] = assay: EMSA of NF-κB DNA binding in C2C12 cells; format: cell-based, mouse; settings: 200 μM
Description: (§1) To confirm that the NBD mimetics reduce IKK activity, the extent of phosphorylation of the IKK target, IκBα, in response to 10 ng/ml of TNF-α was determined by Western blot at 0, 5 and 10 min after TNF-α stimulation. […] To determine if the mimetics also reduce NF-κB DNA binding activity, electrophoretic mobility shift assay (EMSA) was conducted both in vivo and in vitro.
(§2) Cytoplasmic and nuclear fractions were extracted using the NE-PER nuclear and cytoplasmic extraction reagents (ThermoFisher) according to the manufacturer's instructions. The gel shift assay was performed by following the previously described method (41). In brief, 5 μg of nuclear extract was incubated with gel shift binding buffer and an α-^32P-deoxycytodine triphosphate-radiolabeled NF-κB probe for 20 min at room temperature (MP Biomedicals). The oligonucleotide sequences are as follows: NF-κB template, 5′-[…]-3′; NF-κB annealing, 5′-[…]-3′. The reaction product was separated on a 6% non-denaturing polyacrylamide gel.

NF-κB [3] = assay: Firefly luciferase NF-κB reporter assay in TNF-α-stimulated HEK293 cells; format: cell-based; settings: for inhibition of TNF-α-induced NF-κB activation (luciferase reporter), in words: 293 NF-κB luciferase reporter cells, 10 ng/ml TNF-α, compound 12909780 at 100 μM
Description: This model was used to screen a subset of the drug-like ZINC 8.0 database set (˜900,000 compounds) (Irwin et al., 2005). We were able to identify 161 hits that matched at least 6 features out of eight of the pharmacophore model. […] Two compounds termed NBDA-1 (Zinc-13) and NBDA-2 (Zinc-5), successfully passed these filters (See FIG. 4) and were purchased for biological testing. The compounds were then tested for ability to inhibit TNF-alpha-mediated induction of NF-κB activity in a 293 cells stably modified with a NF-κB luciferase reporter.
The activation of NF-κB was then quantitated by measuring the level of luciferase activity. […] Also, protein extracts were prepared from the same cells and the level of phospho-IkB determined, a marker of IKK activity.
To test if the small molecules identified by the in silico screen inhibit NF-κB activation, a HEK293 cell line stably expressing a luciferase reporter driven by a synthetic, NF-κB-dependent promoter was utilized. To induce NF-κB activation, cells were treated with 10 ng/ml of TNF-α and harvested three hours post-treatment for analysis of luciferase activity. […] To determine if compound 12909780 inhibited NF-κB in a dose dependent manner, concentrations were tested at 0, 6.25, 25, 50 and 100 μM.
HEK293 cells stably transfected with luciferase reporter plasmid driven by NF-κB were seeded in 96-well plate in triplicate and pretreated with DMSO or varying small molecules at indicated concentration for 30 min, followed by the stimulation of 10 ng/ml of TNFα for 3 hr. Cell were washed with PBS once and harvested in passive lysis buffer. Luciferase assay (Promega) was performed using a luminometer according to the manufacturer's instructions.

[4] = biological target: T1, IKK complex (IKKß, IKKα and NEMO) (Homo sapiens, UniProt Q9Y6K9); assay: Co-immunoprecipitation of NEMO with IKKß in 293 cells; format: cell-based; settings: Zinc-5 at 4 hours, Zinc-13 at 1 hour, NBD peptide at 4 hours
T1 construct: analyzed by Western blot for the level of co-precipitated NEMO; endogenous in cells; host or cells: 293 (HEK293) cells
Text: FIG. 8 is a bar graph showing the inhibition of TNFα by NBDA-1 (Zinc-13). […] In addition, we have examined the ability of the compounds to disrupt the IKK complex, comprised of IKKß, IKKα and NEMO.
A non-functional, related compound Zinc-7 had no effect.

Ercc1−/Δ mice [5] = assay: Systemic treatment of Ercc1−/Δ mice, intervertebral disc proteoglycan; format: in vivo, mouse; settings: IP 3× a week, 10 mg/kg for 8 weeks
Description: The ability of the compounds to work systemically was also tested. In these experiments, Ercc1^−/Δ mice with accelerated aging (lifespan of 5 months) were treated systemically, 3× a week, by IP injection at a dose of 10 mg/kg for 8 weeks. Since we previously had shown that the NF-κB is a key factor in driving intervertebral disc degenerated, we assessed the effects of treatment on proteoglycan synthesis and content in the discus following treatment.

NF-κB [6] = assay: EMSA of NF-κB DNA binding in skeletal muscle of mdx mice after acute treatment; format: in vivo, mouse; settings: single ip injection at 10 mg/kg, 1 and 2 hours post-treatment
Description: We also tested the compounds for their ability to inhibit NF-κB activity acutely in a murine model of disease. For these experiments, a mouse model of Duchenne muscular dystrophy, which has elevated NF-κB activity in muscle, was treated with Zinc-13 (NBDA-1) and Zinc-5 (NBDA-2) and the level of NF-κB activity determined by gel shift analysis at 1 and 2 hours post-treatment.
as §1, §2

[7] = Degradation in the presence of serum; format: in vitro ADME; settings: data not shown
Ercc1−/Δ mice [8] = assay: Chronic treatment of Ercc1−/Δ mouse model of accelerated aging with SR12343; format: in vivo
Text: FIG. 41 summarizes the regimen and endpoints for the study of the effects of NBD mimetics on aging using the Ercc1^−/Δ mouse model of accelerated aging
Thus these novel NBD mimetics could be used not only for treatment of inflammatory and degenerative diseases, but also aging.

T1 sequence (Q9Y6K9 whole entry, one chain of several): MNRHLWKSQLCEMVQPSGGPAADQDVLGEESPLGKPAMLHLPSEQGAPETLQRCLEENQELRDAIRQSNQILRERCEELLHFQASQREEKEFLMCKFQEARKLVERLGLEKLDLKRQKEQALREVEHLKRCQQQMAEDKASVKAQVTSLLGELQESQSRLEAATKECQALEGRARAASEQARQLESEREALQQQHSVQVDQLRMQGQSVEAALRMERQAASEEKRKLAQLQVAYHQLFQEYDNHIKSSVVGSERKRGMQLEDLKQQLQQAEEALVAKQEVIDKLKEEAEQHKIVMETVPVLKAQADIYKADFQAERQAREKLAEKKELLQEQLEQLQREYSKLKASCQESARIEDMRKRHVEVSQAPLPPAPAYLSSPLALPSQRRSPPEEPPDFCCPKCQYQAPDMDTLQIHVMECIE

Nc1ncccc1C(=O)OCC(=O)Nc1ccc(Cl)cc1F [NBDA-1, 2-((4-chloro-2-fluorophenyl)amino)-2-oxoethyl 2-aminonicotinate]
epidermal thickness / skin architecture [1]: improved epidermal thickness to a greater extent than the peptide on which it was modeled | TNFα-induced NF-κB DNA binding activity (EMSA) (NF-κB [2]): significantly decreased TNFα-induced NF-κB DNA binding activity | dose-dependent inhibition of TNF-α-induced NF-κB activation, in words (NF-κB [3]; 0, 6.25, 25, 50 and 100 μM): only high concentrations (50 and 100 μM) of the compound were able to inhibit TNF-α-induced NF-κB activation significantly | inhibition of TNF-α-induced NF-κB activation (luciferase reporter), in words (NF-κB [3]): slightly downregulated NF-κB activation | inhibition of TNF-α-induced NF-κB activation (luciferase reporter), in words (NF-κB [3]; listed as Zinc-13): able to reduce activation of NF-κB by TNF-alpha at low micromolar ranges | level of NEMO co-immunoprecipitated with IKKß [4]: reduced the level of co-immunoprecipitated NEMO; also recorded: disrupt the interaction between IKKß and IKKgamma | proteoglycan synthesis and content in the intervertebral disc (Ercc1−/Δ mice [5]): increased the proteoglycan content | NF-κB DNA binding activity in quadriceps of mdx mice (NF-κB [6]; listed as Zinc-13, 10 mg/kg): reduced NF-κB DNA binding activity in the skeletal muscle (quadricep) | NF-κB DNA binding activity in quadriceps of mdx mice (NF-κB [6]; listed as compound 12909780, 10 mg/kg): inhibited NF-κB DNA binding activity in quadriceps | degradation in the presence of serum [7]: rapid degradation in the presence of serum

O=C(CNc1ccc(Cl)cn1)NCCc1cccc(Br)c1 [SR12343, N-(3-bromophenethyl)-2-((5-chloropyridin-2-yl)amino)acetamide]
glycosaminoglycan (GAG) in intervertebral disc nucleus pulposus (Ercc1−/Δ mice [8]): improves pathology in the intervertebral disc as determined by measuring proteoglycans (GAG) | healthspan (Ercc1−/Δ mice [8]): extension of healthspan | clearance of blood glucose (oral glucose tolerance test) (Ercc1−/Δ mice [8]; 15 wk-old mice): improves clearance of glucose in an oral glucose tolerance test | senescence (Ercc1−/Δ mice [8]; 15 wk-old mice): reduces senescence | aging symptoms associated with frailty (Ercc1−/Δ mice [8]; different ages): reduces the onset of symptoms associated with frailty | overall score of the aging symptoms (Ercc1−/Δ mice [8]; different ages): reduces the onset of symptoms with chronic treatment | body fat percentage (NMR) (Ercc1−/Δ mice [8]; male mice): reduces loss of fat in male mice | forelimb grip strength (Ercc1−/Δ mice [8]; male mice): improves grip strength in male mice
